Test results: PMC8851282, “Senolysis induced by 25-hydroxycholesterol targets CRYAB in multiple cell types” (iScience, 2022)

Test system: FAPs
Assay: Cell viability assay (cell counting kit-8) of senescent and non-senescent FAPs treated with inhibitors
Assay type: cell-based, mouse
Conditions: for IC50: Mus musculus, FAPs
Experimental: Figure 3 25HC is a senolytic in multiple muscle cell types (A) Targets, compounds, and mechanisms. (B) Timeline of cell viability assay with inhibitors. Cells were pre-cultured for 24 h, treated with Doxo for 24 h, and then treated with inhibitors. Cell viability was analyzed from day 0–7. (C–E) Effects of inhibitors on viability of FAPs, SCs, and HSMMs. Cells were treated with inhibitors at the indicated concentrations. Cell viability was analyzed on day 3 (HSMMs) or 5 (FAPs and SCs). Blue and red dots indicate non-senescent (NS) and senescent (SEN), respectively. The average value at 0 μM for each group was set at 100% cell viability. p values versus NS were obtained using unpaired two-tailed Student’s t test. ∗p < 0.05, ∗∗p < 0.01, and ∗∗∗p < 0.001.
Figure 4 EC50 fitted curves (triplicates) of inhibitor effects at 3 and 7 days in FAPS and SCs EC50 was defined as the concentration of inhibitors that provokes a response halfway between baseline and maximum senolytic activity. EC50 values were determined by four- parameter logistic modeling using GraphPad Prism 8.0.
Hind limb muscles were digested in DMEM containing 0.5% (w/v) collagenase type II (Worthington) for 90 min at 37 °C with trituration and passed through a 40-μm nylon mesh. Erythrocytes were eliminated by treating with BD Pharm Lyse (BD Biosciences). Cells were resuspended in a washing buffer of PBS with 2% FBS and stained with antibodies for 30 min at 4 °C as described ([Kamizaki et al., 2017]). FAPs and SCs were isolated from the suspension by FACS (Aria II, BD Biosciences) using anti-CD31, CD45, Sca-1, PDGFR and VCAM1 antibodies. FAPs were identified as Sca1/PDGFR-positive and CD31-, CD45- and VCAM1-negative cells ([Uezumi et al., 2010]). SCs were identified as VCAM1-positive and CD31-, CD45-, Sca-1 and PDGFR-negative cells ([Liu et al., 2015]).
All experiments were performed in incubators at 37 °C, 3% O2 and 5% CO2. Senescence was induced by treatment with either Doxo (250 nM for 24 h) ([Demaria et al., 2017]) or X-irradiation (10 Gy) ([Limbad et al., 2020]). For cell culture studies using 25HC, it was used at the indicated concentrations in the media.
FAPs and SCs were cultured on Matrigel-coated dishes (BD Biosciences) in growth medium (GM) consisting of DMEM plus 10% FBS, 1% penicillin-streptomycin and 10% MyoCult (STEMCELL Technologies) for 7 days. Human myogenic cell HSMMs (Lonza) were maintained according to the manufacturer’s instructions with SkGM-2 medium (Lonza).
Cell viability was assessed using a cell counting kit-8 from Dojindo Molecular Technologies, Inc (Cat CK04-20). Cells were incubated with culture media + 10% kit cell viability reagent, 150 μL/well in 96-well plates for 2 h. The supernatant was transferred to a new 96-well plate and absorbance read at 450 nm as recommended in the product datasheet.

`C[C@H](CCCC(C)(C)O)[C@H]1CC[C@H]2[C@@H]3CC=C4C[C@@H](O)CC[C@]4(C)[C@H]3CC[C@]12C` [25HC, 25-hydroxycholesterol] was tested, and the “viability of senescent versus non-senescent FAPs” value (Doxo-induced senescence, viability on day 5, 25HC at concentrations between 0.1 and 1 μM) was “specifically decreased the viability of senescent FAPs”, the IC50 (72 h, 3 days in culture) was 1700 nM and the IC50 (168 h, 7 days in culture) was 1200 nM.
